Test results taken from US20180353501A1 (Arvinas, Inc., priority 2017, published 2018).

Target: T1, p38α:PROTAC:VHL ternary complex (Homo sapiens, UniProt P40337+Q16539)
T1 construct: encodes a region spanning amino acids 2-360 of the human p38α kinase; made in house; host or cells: E. coli (BL21-CodonPlus(DE3)-RIPL for p38α; BL21(DE3) for GST-VBC)
Test: In vitro ternary complex pull-down with GST-VBC bait, purified p38α
Type: binding
Procedure: FIGS. 14A, 14B, and 14C. p38α selectivity is discriminated by ternary complex formation. (A) Only p38α incubated in the presence of exemplary compound 50 can be immunoprecipitated with GST-tagged VHL/EloB/EloC (VBC). Immobilized VBC was used as a bait to trap purified p38α in the presence of vehicle (DMSO), compound 50, or compound 46 (represented in micromolar concentrations). The rightmost lane represents a 1:25 dilution of initial input protein used in each pull-down. (B) Proximity-based AlphaLISA assay detects significant p38α:compound 50:VHL ternary complex, but no p38α:compound 46:VHL ternary complex. His-p38α and GST-VBC were incubated in the presence of increasing concentrations of compound 50 and compound 46 and the extent of ternary complex formation was assessed by excitation with incident light with 1=680 nm and capture of the emission light at 1=615 nm. Error bars represent the SD from quadruplicate experiments. […] FLAGimmunoprecipitated lysates were separated by SDS-PAGE and assessed via western blots detecting HA (Ub). […]
Following this logic, to the present disclosure seeks to describe the selectivity of exemplary compound 50 for p38α at the ternary complex level through the use of an in vitro ternary complex pull-down assay. […] Similarly, exemplary PROTACs 46 and 50 were evaluated in a proximity-based luminescence assay (AlphaLISA) to detect ternary complex formation. […]

T1 sequence (Q16539 2-360 limits assumed): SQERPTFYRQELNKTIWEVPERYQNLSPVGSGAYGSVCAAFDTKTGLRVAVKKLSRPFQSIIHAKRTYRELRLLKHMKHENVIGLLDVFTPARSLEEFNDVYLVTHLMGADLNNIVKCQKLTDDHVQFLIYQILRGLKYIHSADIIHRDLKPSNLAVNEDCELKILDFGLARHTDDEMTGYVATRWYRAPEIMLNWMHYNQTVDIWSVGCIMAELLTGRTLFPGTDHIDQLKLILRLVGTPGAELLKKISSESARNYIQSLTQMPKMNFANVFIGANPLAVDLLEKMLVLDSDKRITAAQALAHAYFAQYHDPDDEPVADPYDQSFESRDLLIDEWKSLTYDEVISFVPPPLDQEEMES
T1 sequence (P40337 whole entry, the tested form may be a part): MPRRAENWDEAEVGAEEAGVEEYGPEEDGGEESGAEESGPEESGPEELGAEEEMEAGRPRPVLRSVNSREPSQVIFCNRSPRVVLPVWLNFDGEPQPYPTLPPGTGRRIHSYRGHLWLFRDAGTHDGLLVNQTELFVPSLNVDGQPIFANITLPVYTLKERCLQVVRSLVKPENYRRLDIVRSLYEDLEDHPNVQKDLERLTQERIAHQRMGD
T1 sequence (Q15370 whole entry partner, the tested form may be a part): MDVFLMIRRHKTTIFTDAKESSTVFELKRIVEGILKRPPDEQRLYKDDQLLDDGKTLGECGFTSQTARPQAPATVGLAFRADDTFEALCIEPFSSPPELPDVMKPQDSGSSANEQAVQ
T1 sequence (Q15369 whole entry partner, the tested form may be a part): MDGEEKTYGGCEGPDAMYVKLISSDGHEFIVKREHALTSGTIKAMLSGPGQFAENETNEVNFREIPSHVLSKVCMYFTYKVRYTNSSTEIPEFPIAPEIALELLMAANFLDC

Row | Structure (SMILES) | enrichment of purified p38α on GST-VBC bait
1 | COc1cc2c(Oc3ccc(NC(=O)C4(C(=O)Nc5ccc(F)cc5)CC4)cc3F)ccnc2cc1OCCOCCOCCOc1cc(-c2scnc2C)ccc1CNC(=O)[C@@H]1C[C@@H](O)CN1C(=O)[C@H](C(C)C)N1Cc2ccccc2C1=O [compound 46] | no detectable enrichment
2 | COc1cc2c(Oc3ccc(NC(=O)C4(C(=O)Nc5ccc(F)cc5)CC4)cc3F)ccnc2cc1OCCCCOCCCCOCC(=O)N[C@H](C(=O)N1C[C@H](O)C[C@H]1C(=O)NCc1ccc(-c2scnc2C)cc1)C(C)(C)C [compound 50, N-(3-fluoro-4-((7-(4-(4-(2-(((S)-1-((2S,4R)-4-hydroxy-2-((4-(4-methylthiazol-5-yl)benzyl)carbamoyl)pyrrolidin-1-yl)-3,3-dimethyl-1-oxobutan-2-yl)amino)-2-oxoethoxy)butoxy)buto-xy)-6-methoxyquinolin-4-yl)oxy)phenyl)-N-(4-fluorophenyl)cyclopropane-1,1-dicarboxa-mide] | substantial enrichment of purified p38α
